Source: ChEMBL document CHEMBL5143585, “Discovery and characterization of benzyloxy piperidine based dopamine 4 receptor antagonists” (Bioorg Med Chem Lett, 2022)

target: D(2) dopamine receptor (Homo sapiens) (UniProt P14416); assay: Displacement of [3H]N-methylspiperone from human D2 receptor expressed in HEK293 cell membrane at 10 uM by competitive inhibition based analysis; type: cell membranes
Sequence (P14416 whole entry): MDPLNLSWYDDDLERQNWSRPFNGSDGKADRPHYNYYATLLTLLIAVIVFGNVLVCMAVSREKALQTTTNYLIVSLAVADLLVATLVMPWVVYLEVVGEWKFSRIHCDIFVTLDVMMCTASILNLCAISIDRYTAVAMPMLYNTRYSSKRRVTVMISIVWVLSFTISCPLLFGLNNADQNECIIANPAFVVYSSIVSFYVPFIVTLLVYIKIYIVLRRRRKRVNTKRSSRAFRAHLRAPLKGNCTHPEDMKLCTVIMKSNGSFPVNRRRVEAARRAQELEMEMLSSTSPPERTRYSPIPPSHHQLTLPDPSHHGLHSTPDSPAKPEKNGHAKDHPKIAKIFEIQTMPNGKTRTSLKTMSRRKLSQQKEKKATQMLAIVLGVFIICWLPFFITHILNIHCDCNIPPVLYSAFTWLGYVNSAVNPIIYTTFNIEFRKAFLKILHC

| inhibition | Structure (SMILES) |
| --- | --- |
| < 50% | COc1ccc(CN2CCC[C@H](OCc3cccc(C)n3)C2)cc1F |
| < 50% | FC(F)(F)c1cccc(COC2CCN(Cc3ncc4ccccn34)CC2)c1 |
| < 50% | Cc1nc(CN2CCC(OCc3ccc(F)c(F)c3)CC2)c2ccccn12 |
| < 50% | Fc1cccc(CO[C@H]2CCCN(Cc3ncn4ccccc34)C2)c1 |
| < 50% | Cc1ccc(CN2CCC[C@H](OCc3ccc(F)c(C)c3)C2)cc1 |
| < 50% | COc1ccc(CN2CCC[C@H](OCc3ccc(F)c(C)c3)C2)cc1F |
| < 50% | Fc1cccc(CO[C@H]2CCCN(Cc3cn4ccccc4n3)C2)c1 |
| < 50% | COc1ccc(CN2CCC[C@H](OCc3cccc(F)c3)C2)cc1F |
| < 50% | COc1ccc(CN2CCC[C@H](OCc3ccc(C)cc3)C2)cc1F |
| < 50% | Cc1cc(CO[C@H]2CCCN(Cc3cn4ccccc4n3)C2)ccc1F |
| < 50% | Cc1cc(CO[C@H]2CCCN(Cc3ncn4ccccc34)C2)ccc1F |
| < 50% | FC(F)(F)Oc1cccc(CO[C@H]2CCCN(Cc3cn4ccccc4n3)C2)c1 |

target: D(3) dopamine receptor (Homo sapiens, UniProt P35462); assay: Displacement of [3H]N-methylspiperone from human D3 receptor expressed in HEK293 cell membrane at 10 uM by competitive inhibition based analysis; type: cell membranes
Sequence (P35462 whole entry): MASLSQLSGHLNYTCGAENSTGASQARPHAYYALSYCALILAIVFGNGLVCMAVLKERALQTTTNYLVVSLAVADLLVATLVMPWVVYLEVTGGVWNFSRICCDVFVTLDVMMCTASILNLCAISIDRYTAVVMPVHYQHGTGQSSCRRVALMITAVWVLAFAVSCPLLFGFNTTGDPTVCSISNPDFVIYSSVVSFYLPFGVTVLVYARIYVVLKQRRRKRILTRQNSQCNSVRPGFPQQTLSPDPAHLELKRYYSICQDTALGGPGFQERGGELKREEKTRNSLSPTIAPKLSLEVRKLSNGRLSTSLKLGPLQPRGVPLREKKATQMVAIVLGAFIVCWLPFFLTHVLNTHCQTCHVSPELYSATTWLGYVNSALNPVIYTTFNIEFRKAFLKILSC

| inhibition | Structure (SMILES) |
| --- | --- |
| < 50% | COc1ccc(CN2CCC[C@H](OCc3cccc(C)n3)C2)cc1F |
| < 50% | FC(F)(F)c1cccc(COC2CCN(Cc3ncc4ccccn34)CC2)c1 |
| < 50% | Cc1nc(CN2CCC(OCc3ccc(F)c(F)c3)CC2)c2ccccn12 |
| < 50% | Fc1cccc(CO[C@H]2CCCN(Cc3ncn4ccccc34)C2)c1 |
| < 50% | Cc1ccc(CN2CCC[C@H](OCc3ccc(F)c(C)c3)C2)cc1 |
| < 50% | COc1ccc(CN2CCC[C@H](OCc3ccc(F)c(C)c3)C2)cc1F |
| < 50% | Fc1cccc(CO[C@H]2CCCN(Cc3cn4ccccc4n3)C2)c1 |
| < 50% | COc1ccc(CN2CCC[C@H](OCc3cccc(F)c3)C2)cc1F |
| < 50% | COc1ccc(CN2CCC[C@H](OCc3ccc(C)cc3)C2)cc1F |
| < 50% | Cc1cc(CO[C@H]2CCCN(Cc3cn4ccccc4n3)C2)ccc1F |
| < 50% | Cc1cc(CO[C@H]2CCCN(Cc3ncn4ccccc34)C2)ccc1F |
| < 50% | FC(F)(F)Oc1cccc(CO[C@H]2CCCN(Cc3cn4ccccc4n3)C2)c1 |

target: D(1A) dopamine receptor (Homo sapiens, UniProt P21728); assay: Displacement of [3H]-SCH23390 from human D1 receptor expressed in HEK293 cell membrane at 10 uM by competitive inhibition based analysis; type: cell membranes
Sequence (P21728 whole entry): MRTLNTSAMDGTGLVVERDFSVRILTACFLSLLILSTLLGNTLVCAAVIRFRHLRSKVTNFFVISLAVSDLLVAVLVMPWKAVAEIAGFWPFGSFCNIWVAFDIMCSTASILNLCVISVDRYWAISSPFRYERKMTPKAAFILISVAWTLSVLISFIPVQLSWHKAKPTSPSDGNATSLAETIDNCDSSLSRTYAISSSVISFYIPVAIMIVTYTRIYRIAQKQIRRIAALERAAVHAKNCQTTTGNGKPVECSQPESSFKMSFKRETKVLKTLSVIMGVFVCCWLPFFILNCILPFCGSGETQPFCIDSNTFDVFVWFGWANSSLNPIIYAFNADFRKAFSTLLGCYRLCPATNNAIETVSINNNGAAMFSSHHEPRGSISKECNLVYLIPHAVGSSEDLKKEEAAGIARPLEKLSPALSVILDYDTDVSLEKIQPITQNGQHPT

| inhibition | Structure (SMILES) |
| --- | --- |
| < 50% | COc1ccc(CN2CCC[C@H](OCc3cccc(C)n3)C2)cc1F |
| < 50% | FC(F)(F)c1cccc(COC2CCN(Cc3ncc4ccccn34)CC2)c1 |
| < 50% | Cc1nc(CN2CCC(OCc3ccc(F)c(F)c3)CC2)c2ccccn12 |
| < 50% | Fc1cccc(CO[C@H]2CCCN(Cc3ncn4ccccc34)C2)c1 |
| < 50% | Cc1ccc(CN2CCC[C@H](OCc3ccc(F)c(C)c3)C2)cc1 |
| < 50% | COc1ccc(CN2CCC[C@H](OCc3ccc(F)c(C)c3)C2)cc1F |
| < 50% | Fc1cccc(CO[C@H]2CCCN(Cc3cn4ccccc4n3)C2)c1 |
| < 50% | COc1ccc(CN2CCC[C@H](OCc3cccc(F)c3)C2)cc1F |
| < 50% | COc1ccc(CN2CCC[C@H](OCc3ccc(C)cc3)C2)cc1F |
| < 50% | Cc1cc(CO[C@H]2CCCN(Cc3cn4ccccc4n3)C2)ccc1F |
| < 50% | Cc1cc(CO[C@H]2CCCN(Cc3ncn4ccccc34)C2)ccc1F |
| < 50% | FC(F)(F)Oc1cccc(CO[C@H]2CCCN(Cc3cn4ccccc4n3)C2)c1 |

target: T1, D(4) dopamine receptor (Homo sapiens, UniProt P21917); assay: Displacement of [3H]N-methylspiperone from human D4 receptor expressed in HEK293 cell membrane by competitive inhibition based analysis; type: cell membranes
T1 sequence (P21917 whole entry): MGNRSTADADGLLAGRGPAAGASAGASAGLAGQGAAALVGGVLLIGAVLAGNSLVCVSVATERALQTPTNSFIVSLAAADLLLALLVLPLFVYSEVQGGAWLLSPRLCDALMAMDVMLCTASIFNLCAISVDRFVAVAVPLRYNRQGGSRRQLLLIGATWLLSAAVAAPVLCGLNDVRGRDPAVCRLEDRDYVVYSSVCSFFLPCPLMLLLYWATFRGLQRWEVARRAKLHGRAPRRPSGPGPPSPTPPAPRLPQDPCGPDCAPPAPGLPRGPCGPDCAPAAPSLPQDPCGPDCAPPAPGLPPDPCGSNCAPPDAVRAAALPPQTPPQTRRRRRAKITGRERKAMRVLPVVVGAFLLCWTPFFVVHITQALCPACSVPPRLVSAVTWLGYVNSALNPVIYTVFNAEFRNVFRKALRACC

| IC50 | Ki | Structure (SMILES) |
| --- | --- | --- |
| 0.851 µM | 0.86 µM | FC(F)(F)c1cccc(COC2CCN(Cc3ccc4[nH]ncc4c3)CC2)c1 |
| 0.575 µM | 0.58 µM | Fc1cc(COC2CCN(Cc3ccc4[nH]ncc4c3)CC2)ccc1Cl |
| 1.05 µM | 1.04 µM | COc1ccc(CN2CCC[C@H](OCc3cccc(C)n3)C2)cc1F |
| 0.209 µM | 0.208 µM | FC(F)(F)c1cccc(COC2CCN(Cc3ncc4ccccn34)CC2)c1 |
| 0.479 µM | 0.478 µM | Cc1nc(CN2CCC(OCc3ccc(F)c(F)c3)CC2)c2ccccn12 |
| 1.35 µM | 1.34 µM | Fc1cccc(CO[C@H]2CCCN(Cc3ncn4ccccc34)C2)c1 |
| 0.166 µM | 0.165 µM | Cc1ccc(CN2CCC[C@H](OCc3ccc(F)c(C)c3)C2)cc1 |
| 0.135 µM | 0.135 µM | COc1ccc(CN2CCC[C@H](OCc3ccc(F)c(C)c3)C2)cc1F |
| 1.95 µM | 1.94 µM | Fc1cccc(CO[C@H]2CCCN(Cc3cn4ccccc4n3)C2)c1 |
| 1.41 µM | 1.4 µM | Cn1cnc2cc(CN3CCC(OCc4ccc(F)c(F)c4)CC3)ccc21 |
| 2 µM | 1.98 µM | COc1ccc(CN2CCC[C@@H](OCc3ccc(F)c(C)c3)C2)cc1F |
| 0.204 µM | 0.206 µM | COc1ccc(CN2CCC[C@H](OCc3cccc(F)c3)C2)cc1F |
| 0.24 µM | 0.241 µM | COc1ccc(CN2CCC[C@H](OCc3ccc(C)cc3)C2)cc1F |
| 0.186 µM | 0.187 µM | Cc1cc(CO[C@H]2CCCN(Cc3cn4ccccc4n3)C2)ccc1F |
| 1.74 µM | 1.73 µM | Fc1ccc(COC2CCN(Cc3ccc4[nH]ncc4c3)CC2)cc1F |
| 0.162 µM | 0.166 µM | Cc1cc(CO[C@H]2CCCN(Cc3ncn4ccccc34)C2)ccc1F |
| 0.646 µM | 0.646 µM | FC(F)(F)Oc1cccc(CO[C@H]2CCCN(Cc3cn4ccccc4n3)C2)c1 |

target: D(1B) dopamine receptor (Homo sapiens, UniProt P21918); assay: Displacement of [3H]-SCH23390 from human D5 receptor expressed in HEK293 cell membrane at 10 uM by competitive inhibition based analysis; type: cell membranes
Sequence (P21918 whole entry): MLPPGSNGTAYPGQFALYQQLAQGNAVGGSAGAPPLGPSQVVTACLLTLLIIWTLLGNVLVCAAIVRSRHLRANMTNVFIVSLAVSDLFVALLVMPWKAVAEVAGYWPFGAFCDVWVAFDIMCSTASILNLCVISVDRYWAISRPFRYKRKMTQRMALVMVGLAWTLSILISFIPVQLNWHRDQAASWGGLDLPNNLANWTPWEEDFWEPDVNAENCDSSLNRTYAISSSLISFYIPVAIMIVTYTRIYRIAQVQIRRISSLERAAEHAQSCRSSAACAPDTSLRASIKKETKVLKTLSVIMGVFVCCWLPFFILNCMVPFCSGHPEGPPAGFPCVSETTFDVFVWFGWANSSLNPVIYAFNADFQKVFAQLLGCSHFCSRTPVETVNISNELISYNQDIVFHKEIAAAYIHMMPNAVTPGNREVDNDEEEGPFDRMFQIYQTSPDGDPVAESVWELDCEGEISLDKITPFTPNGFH

| inhibition | Structure (SMILES) |
| --- | --- |
| < 50% | COc1ccc(CN2CCC[C@H](OCc3cccc(C)n3)C2)cc1F |
| < 50% | FC(F)(F)c1cccc(COC2CCN(Cc3ncc4ccccn34)CC2)c1 |
| < 50% | Cc1nc(CN2CCC(OCc3ccc(F)c(F)c3)CC2)c2ccccn12 |
| < 50% | Fc1cccc(CO[C@H]2CCCN(Cc3ncn4ccccc34)C2)c1 |
| < 50% | Cc1ccc(CN2CCC[C@H](OCc3ccc(F)c(C)c3)C2)cc1 |
| < 50% | COc1ccc(CN2CCC[C@H](OCc3ccc(F)c(C)c3)C2)cc1F |
| < 50% | Fc1cccc(CO[C@H]2CCCN(Cc3cn4ccccc4n3)C2)c1 |
| < 50% | COc1ccc(CN2CCC[C@H](OCc3cccc(F)c3)C2)cc1F |
| < 50% | COc1ccc(CN2CCC[C@H](OCc3ccc(C)cc3)C2)cc1F |
| < 50% | Cc1cc(CO[C@H]2CCCN(Cc3cn4ccccc4n3)C2)ccc1F |
| < 50% | Cc1cc(CO[C@H]2CCCN(Cc3ncn4ccccc34)C2)ccc1F |
| < 50% | FC(F)(F)Oc1cccc(CO[C@H]2CCCN(Cc3cn4ccccc4n3)C2)c1 |
